Test [1] relates to hypothermic effect caused by reserpine. Nature of the test: Reserpine antagonism (elimination of the hypothermic effect caused by reserpine). In kind it is in vivo. The note with it: Mus musculus, mice, oral, 17 h after 2 mg/kg i.p. reserpine. The protocol:
A further test for determining anti-depressive activity is based on reserpine-antagonism, that is, the elimination of the hypothermic effect caused by reserpine. The test is carried out in mice, 5 animals being used per dosage test. Seventeen hours after i.p. administration of 2 mg/kg of reserpine, the body temperature is measured peripherally while at a room temperature of 19° C. Afterwards, the test substance is administered orally, and the body temperature is measured after 1, 3, 5 and 7 hours. For each measured period a mean effective dose (ED50) is determined. This is the dosage at which the body temperature of the animals treated with reserpine approaches the normal temperature of untreated controls by 50%.

Test [2] has as its system uptake of serotonin by the neurons (synaptosomes). Nature of the test: Inhibition of serotonin uptake by synaptosomes of homogenized cerebrum. Format: biochemical. The note with it: rat cerebrum synaptosomes, 10 minutes at 37° C.; read-out: Serotonin inhibition IC 50. As for the experimental part: (§1) It is now believed that various forms of depression cause a deficiency of certain physiologically important amines, particularly noradrenaline and serotonin, in certain parts of the brain, and that the amount of such amines may be increased by inhibiting their uptake by neurons.
(§2) The test is performed on the homogenized, isolated cerebrum of the rat. A suspension of synaptosomes thus obtained is incubated with […] noradrenaline and/or serotonin and various concentrations of a solution of the test substance in water for 10 minutes at 37° C. When the incubation is finished, the medium is separated by filtering, and the radioactivity of the suspension of synaptosomes is measured.
(§3) A control test in the absence of the test substance is simultaneously carried out in order to determine the quantity of radioactive amines taken up. The quantity of the test substance in mols which is required to inhibit 50% of the uptake is designated the IC 50.

Test [3] relates to uptake of noradrenaline by the neurons (synaptosomes). Nature of the test: Inhibition of noradrenaline uptake by synaptosomes of homogenized cerebrum. In kind it is biochemical. The conditions noted are these: rat cerebrum synaptosomes, 10 minutes at 37° C.; read-out: Noradrenaline inhibition IC 50. The protocol: as §1, §2, §3
The mark [4] stands for this setting: 1 hour, read-out: Reserpine antagonism after 1 hour (ED50).
Setting [5] is: 3 hours, read-out: Reserpine antagonism after 3 hours (ED50).
The mark [6] stands for this setting: 5 hours, read-out: Reserpine antagonism after 5 hours (ED50).
Where [7] appears, read: 7 hours, read-out: Reserpine antagonism after 7 hours (ED50).

Read-outs that look alike come from different tables or passages of the source.

As usually defined, the ED50 is the dose that gives a 50% effect, or the effect in half of the subjects. Take `CN1Cc2c(cc(CN3CCOCC3)n2C)C(c2ccccc2)C1` (stereo not drawn) [1,6-Dimethyl-2-morpholinomethyl-4-phenyl-4,5,6,7-tetrahydropyrrolo[2,3-c]pyridine]: the ED50 was greater than 40 mg/kg in test [1] (setting [4]), 16 mg/kg in test [1] (setting [5]), 10 mg/kg in test [1] (setting [6]) and less than 40 mg/kg in test [1] (setting [7]). Besides, the figures for the IC50 in test [2] and in test [3] were 1.6 µM and 6.6 µM, respectively.
Turning to `CN1Cc2c(ccn2C)C(c2ccc(Br)cc2)C1` (stereo not drawn) [1,6-Dimethyl-4-(p-bromophenyl)-4,5,6,7-tetrahydro-pyrrolo[2,3-c]pyridine], the ED50 came to 20 mg/kg in test [1] (setting [4]), 6 mg/kg in test [1] (setting [5]), 40 mg/kg in test [1] (setting [6]) and 40 mg/kg in test [1] (setting [7]). Besides, the figures for the IC50 in test [2] and in test [3] were 0.09 µM and 1.25 µM, respectively.
For the compound `CN(CCO)Cc1cc2c(n1C)CN(C)CC2c1ccc(Br)cc1` (stereo not drawn) [1,6-dimethyl-2-N-methyl-N-β-hydroxyethyl-aminomethyl-4-(p-bromophenyl)-4,5,6,7-tetrahydro-pyrrolo[2,3-c]-pyridine dimaleate], the ED50 was 10 mg/kg in test [1] (setting [4]), less than 10 mg/kg in test [1] (setting [5]), 13 mg/kg in test [1] (setting [6]) and 10 mg/kg in test [1] (setting [7]). Moreover, the figures for the IC50 in test [2] and in test [3] were 0.38 µM and 1.3 µM, respectively.
For the compound `CN1Cc2c(cc(Br)n2C)C(c2ccc(Br)cc2)C1` (stereo not drawn) [1,6-dimethyl-2-bromo-4-(p-bromophenyl)-4,5,6,7-tetrahydro-pyrrolo[2,3-c]-pyridine], the ED50 in test [1] (setting [4]) was greater than 40 mg/kg; in test [1] (setting [5]), 14 mg/kg; in test [1] (setting [6]), less than 10 mg/kg; in test [1] (setting [7]) it was 10 mg/kg. In addition, the IC50 is 0.44 µM in test [2] and 1.8 µM in test [3].
For `CN1Cc2c(cc(CN3CCCCCC3)n2C)C(c2ccc(Br)cc2)C1` (stereo not drawn) [1,6-dimethyl-2-hexahydro-azepine-1-yl-methyl-4-(p-bromophenyl)-4,5,6,7-tetrahydro-pyrrolo[2,3-c]-pyridine dimaleate], the ED50 in test [1] (setting [4]) was less than 10 mg/kg; in test [1] (setting [5]), less than 10 mg/kg; in test [1] (setting [6]), 20 mg/kg; in test [1] (setting [7]), greater than 40 mg/kg.
Take `CN1Cc2c(cc(CN3CCCCC3)n2C)C(c2ccc(Br)cc2)C1` (stereo not drawn) [1,6-dimethyl-2-piperidino-methyl-4-(p-bromophenyl)-4,5,6,7-tetrahydro-pyrrolo-[2,3-c]pyridine dimaleate]: the ED50 is greater than 40 mg/kg in test [1] (setting [4]), 40 mg/kg in test [1] (setting [5]), 40 mg/kg in test [1] (setting [6]) and greater than 40 mg/kg in test [1] (setting [7]).
Take `CN1Cc2c(cc(CN3CCCC3)n2C)C(c2ccc(Br)cc2)C1` (stereo not drawn) [1,6-dimethyl-2-pyrrolidino-methyl-4-(p-bromophenyl)-4,5,6,7-tetrahydro-pyrrolo-[2,3-c]pyridine dimaleate]: the ED50 is greater than 40 mg/kg in test [1] (setting [4]), less than 10 mg/kg in test [1] (setting [5]), 10 mg/kg in test [1] (setting [6]) and less than 10 mg/kg in test [1] (setting [7]).
Consider `CN1Cc2c(ccn2C)C(c2ccc(Cl)cc2)C1.Cl` (stereo not drawn) [1,6-dimethyl-4-(p-chlorophenyl)-4,5,6,7-tetrahydro-pyrrolo-[2,3-c]pyridine hydrochloride], for which the ED50 in test [1] (setting [4]), in test [1] (setting [5]), in test [1] (setting [6]) and in test [1] (setting [7]) was less than 10 mg/kg throughout. Moreover, the IC50 in test [2] was 0.04 µM; in test [3] it was 1.5 µM.
`CN1Cc2c(ccn2C)C(c2ccc(F)cc2)C1.Cl` (stereo not drawn) [1,6-dimethyl-4-(p-fluorophenyl)-4,5,6,7-tetrahydro-pyrrolo-[2,3-c]pyridine hydrochloride]: the ED50 in test [1] (setting [4]), in test [1] (setting [5]), in test [1] (setting [6]) and in test [1] (setting [7]) was less than 10 mg/kg each time. The IC50 came to 0.18 µM in test [2] and 6.7 µM in test [3].
Consider `Cc1ccc(C2CN(C)Cc3c2ccn3C)cc1.Cl` (stereo not drawn) [1,6-dimethyl-4-(p-tolyl)-4,5,6,7-tetrahydro-pyrrolo-[2,3-c]pyridine hydrochloride], for which the median effective dose (ED50) in test [1] (setting [4]) was greater than 40 mg/kg; in test [1] (setting [5]), less than 10 mg/kg; in test [1] (setting [6]) it was 16 mg/kg; in test [1] (setting [7]) it was less than 10 mg/kg. In addition, the IC50 in test [2] was found to be 0.04 µM; in test [3], 4.9 µM.
As to `Cn1ccc2c1CNCC2c1ccc(Br)cc1.O=C(O)/C=C\C(=O)O` (stereo not drawn) [1-methyl-4-(p-bromophenyl)-4,5,6,7-tetrahydro-pyrrolo-[2,3-c]pyridine maleate], the ED50 in test [1] (setting [4]) was 36 mg/kg; in test [1] (setting [5]) it was 10 mg/kg; in test [1] (setting [6]), 30 mg/kg; in test [1] (setting [7]), 40 mg/kg. The IC50 in test [2] worked out at 0.53 µM; in test [3], 6.9 µM.
With `CCN1Cc2c(ccn2C)C(c2ccc(C)cc2)C1.Cl` (stereo not drawn) [1-methyl-4-(p-tolyl)-6-ethyl-4,5,6,7-tetrahydro-pyrrolo-[2,3-c]pyridine hydrochloride], the ED50 was greater than 40 mg/kg in test [1] (setting [4]), less than 10 mg/kg in test [1] (setting [5]), 10 mg/kg in test [1] (setting [6]) and greater than 40 mg/kg in test [1] (setting [7]). Also, the IC50 turned out to be 0.02 µM in test [2] and 0.6 µM in test [3].

The values are drawn from patent publication US4315938A, “4-Phenyl-4,5,6,7-tetrahydro-pyrrolo [2,3-c] pyridines and salts thereof” (Boehringer Ingelheim Gmbh, priority 1979, dated 1982).
